According to patent US7378375B1, “Substituted pyridine herbicides” (Syngenta Crop Protection, Inc., priority 2000, dated 2008):

Columns and labels:
[1] = test system: Monocotyledonous and dicotyledonous test plants; experiment: Herbicidal action before emergence of the plants (pre-emergence action), greenhouse pot test, 9-level rating after 4 weeks; assay type: in vivo; design: key: 9-level scale: 1 = complete damage, 9 = no effect; settings: 250 g/ha, rated after 4 weeks, 9-level scale
Experimental: Herbicidal Action Before Emergence of the Plants (Pre-Emergence Action)
(§1) Monocotyledonous and dicotyledonous test plants are sown in standard soil in pots. Immediately after sowing, the test substances are sprayed on at an optimum dosage (500 l of water/ha) as an aqueous suspension (prepared from a wettable powder (example F3, b) according to WO 97/34485) or emulsion (prepared from an emulsion concentrate (example F1, c) according to WO 97/34485). The test plants are then grown under optimum conditions in a greenhouse.
After a test period of 4 weeks, the test is evaluated using a 9-level scale of ratings (1=complete damage, 9=no effect). Ratings of 1 to 4 (in particular 1 to 3) mean good to very good herbicidal action.

[2] = test system: Monocotyledonous and dicotyledonous test plants; experiment: Post-emergence herbicidal action, greenhouse pot test, sprayed at the 2- to 3-leaf stage, 9-level rating after 2 to 3 weeks; assay type: in vivo; design: key: 9-level scale: 1 = complete damage, 9 = no effect; settings: 250 g/ha, rated after 2 to 3 weeks, 9-level scale
Experimental: Post-Emergence Herbicidal Action
as §1, with “grown” for “sown”, “At the 2- to 3-leaf stage of the test plants,” for “Immediately after sowing,”, “sprayed” for “sprayed on”, “at” for “at an”, “grown further” for “grown”
After a test period of 2 to 3 weeks, the test is evaluated using a 9-level scale of rating (1=complete damage, 9=no effect). Ratings of 1 to 4 (in particular 1 to 3) mean good to very good herbicidal action.

C#CCCOCc1nc(C(F)(F)F)ccc1C(=O)C1=C(O)C2CCC(C2)C1=O (stereo not drawn) [A836-B52]
Pre-emergence action rating, Abutilon [1]: 5
Pre-emergence action rating, Amaranthus [1]: 2
Pre-emergence action rating, Chenop. [1]: 3
Pre-emergence action rating, Digitaria [1]: 2
Pre-emergence action rating, Echino. [1]: 1
Pre-emergence action rating, Panicum [1]: 1
Post-emergence action rating, Abutilon [2]: 2
Post-emergence action rating, Amaranth [2]: 2
Post-emergence action rating, Chenop. [2]: 1
Post-emergence action rating, Digitaria [2]: 2
Post-emergence action rating, Echino. [2]: 2
Post-emergence action rating, Ipopur. [2]: 3
Post-emergence action rating, Panicum [2]: 2
Post-emergence action rating, Xanth. [2]: 3

COCCOCCOCc1nc(C(F)(F)F)ccc1C(=O)C1=C(O)C2CCC(C2)C1=O (stereo not drawn) [A835-B52]
Pre-emergence action rating, Abutilon [1]: 2
Pre-emergence action rating, Amaranthus [1]: 1
Pre-emergence action rating, Chenop. [1]: 2
Pre-emergence action rating, Digitaria [1]: 2
Pre-emergence action rating, Echino. [1]: 1
Pre-emergence action rating, Panicum [1]: 1
Post-emergence action rating, Abutilon [2]: 2
Post-emergence action rating, Amaranth [2]: 2
Post-emergence action rating, Chenop. [2]: 1
Post-emergence action rating, Digitaria [2]: 1
Post-emergence action rating, Echino. [2]: 2
Post-emergence action rating, Ipopur. [2]: 2
Post-emergence action rating, Panicum [2]: 1
Post-emergence action rating, Xanth. [2]: 3

COCCOCc1nc(C(F)(F)Cl)ccc1C(=O)C1=C(O)C2CCC(C2)C1=O (stereo not drawn) [A556-B52]
Pre-emergence action rating, Abutilon [1]: 1
Pre-emergence action rating, Amaranthus [1]: 2
Pre-emergence action rating, Chenop. [1]: 1
Pre-emergence action rating, Digitaria [1]: 1
Pre-emergence action rating, Echino. [1]: 1
Pre-emergence action rating, Panicum [1]: 1
Post-emergence action rating, Abutilon [2]: 1
Post-emergence action rating, Amaranth [2]: 2
Post-emergence action rating, Chenop. [2]: 1
Post-emergence action rating, Digitaria [2]: 2
Post-emergence action rating, Echino. [2]: 2
Post-emergence action rating, Ipopur. [2]: 2
Post-emergence action rating, Panicum [2]: 1
Post-emergence action rating, Xanth. [2]: 2

CCOCCOCc1nc(C(F)(F)F)ccc1C(=O)C1=C(O)C2CCC(C2)C1=O (stereo not drawn) [A11-B52]
Pre-emergence action rating, Abutilon [1]: 1
Pre-emergence action rating, Amaranthus [1]: 2
Pre-emergence action rating, Chenop. [1]: 1
Pre-emergence action rating, Digitaria [1]: 1
Pre-emergence action rating, Echino. [1]: 1
Pre-emergence action rating, Panicum [1]: 1
Post-emergence action rating, Abutilon [2]: 2
Post-emergence action rating, Amaranth [2]: 1
Post-emergence action rating, Chenop. [2]: 1
Post-emergence action rating, Digitaria [2]: 1
Post-emergence action rating, Echino. [2]: 2
Post-emergence action rating, Ipopur. [2]: 2
Post-emergence action rating, Panicum [2]: 1
Post-emergence action rating, Xanth. [2]: 2

COc1cc(OC)nc(SCc2nc(C(F)(F)F)ccc2C(=O)C2=C(O)C3CCC(C3)C2=O)n1 (stereo not drawn) [A830-B52]
Pre-emergence action rating, Abutilon [1]: 5
Pre-emergence action rating, Amaranthus [1]: 4
Pre-emergence action rating, Chenop. [1]: 4
Pre-emergence action rating, Digitaria [1]: 9
Pre-emergence action rating, Echino. [1]: 3
Pre-emergence action rating, Panicum [1]: 4
Post-emergence action rating, Abutilon [2]: 5
Post-emergence action rating, Amaranth [2]: 4
Post-emergence action rating, Chenop. [2]: 4
Post-emergence action rating, Digitaria [2]: 9
Post-emergence action rating, Echino. [2]: 3
Post-emergence action rating, Ipopur. [2]: 5
Post-emergence action rating, Panicum [2]: 4
Post-emergence action rating, Xanth. [2]: 4

CCOC(=O)C1(C)CCC(=O)C(C(=O)c2ccc(C(F)(F)F)nc2COCCOC)=C1O (stereo not drawn) [A10-B14]
Pre-emergence action rating, Abutilon [1]: 1
Pre-emergence action rating, Amaranthus [1]: 1
Pre-emergence action rating, Chenop. [1]: 1
Pre-emergence action rating, Digitaria [1]: 6
Pre-emergence action rating, Echino. [1]: 3
Pre-emergence action rating, Panicum [1]: 3
Post-emergence action rating, Abutilon [2]: 2
Post-emergence action rating, Amaranth [2]: 2
Post-emergence action rating, Chenop. [2]: 1
Post-emergence action rating, Digitaria [2]: 2
Post-emergence action rating, Echino. [2]: 3
Post-emergence action rating, Ipopur. [2]: 2
Post-emergence action rating, Panicum [2]: 2
Post-emergence action rating, Xanth. [2]: 2

O=C(C1=C(O)C2CCC(C2)C1=O)c1ccc(C(F)(F)F)nc1COC1COCOC1 (stereo not drawn) [A851-B52]
Pre-emergence action rating, Abutilon [1]: 1
Pre-emergence action rating, Amaranthus [1]: 1
Pre-emergence action rating, Chenop. [1]: 1
Pre-emergence action rating, Digitaria [1]: 1
Pre-emergence action rating, Echino. [1]: 1
Pre-emergence action rating, Panicum [1]: 1
Post-emergence action rating, Abutilon [2]: 3
Post-emergence action rating, Amaranth [2]: 2
Post-emergence action rating, Chenop. [2]: 1
Post-emergence action rating, Digitaria [2]: 3
Post-emergence action rating, Echino. [2]: 4
Post-emergence action rating, Ipopur. [2]: 3
Post-emergence action rating, Panicum [2]: 3
Post-emergence action rating, Xanth. [2]: 3

CC(C)OCc1nc(C(F)(F)F)ccc1C(=O)c1cnn(C)c1O [A3-C5]
Pre-emergence action rating, Abutilon [1]: 1
Pre-emergence action rating, Amaranthus [1]: 1
Pre-emergence action rating, Digitaria [1]: 2
Pre-emergence action rating, Echino. [1]: 2
Pre-emergence action rating, Panicum [1]: 1
Post-emergence action rating, Abutilon [2]: 3
Post-emergence action rating, Amaranth [2]: 3
Post-emergence action rating, Chenop. [2]: 1
Post-emergence action rating, Digitaria [2]: 4
Post-emergence action rating, Echino. [2]: 3
Post-emergence action rating, Ipopur. [2]: 3
Post-emergence action rating, Panicum [2]: 3
Post-emergence action rating, Xanth. [2]: 3

COCCOCc1nc(C(F)(F)F)ccc1C(=O)C1=C(O)C(C)(C)ON(C)C1=O [A10-B25]
Pre-emergence action rating, Abutilon [1]: 1
Pre-emergence action rating, Amaranthus [1]: 1
Pre-emergence action rating, Chenop. [1]: 1
Pre-emergence action rating, Digitaria [1]: 1
Pre-emergence action rating, Echino. [1]: 2
Pre-emergence action rating, Panicum [1]: 1
Post-emergence action rating, Abutilon [2]: 3
Post-emergence action rating, Amaranth [2]: 2
Post-emergence action rating, Chenop. [2]: 1
Post-emergence action rating, Digitaria [2]: 4
Post-emergence action rating, Echino. [2]: 4
Post-emergence action rating, Ipopur. [2]: 3
Post-emergence action rating, Panicum [2]: 3
Post-emergence action rating, Xanth. [2]: 3

COCCOCc1nc(C(F)F)ccc1C(=O)C1=C(O)C2CCC(C2)C1=O (stereo not drawn) [A646-B52]
Pre-emergence action rating, Abutilon [1]: 1
Pre-emergence action rating, Amaranthus [1]: 2
Pre-emergence action rating, Chenop. [1]: 1
Pre-emergence action rating, Digitaria [1]: 1
Pre-emergence action rating, Echino. [1]: 1
Pre-emergence action rating, Panicum [1]: 1
Post-emergence action rating, Abutilon [2]: 2
Post-emergence action rating, Amaranth [2]: 2
Post-emergence action rating, Chenop. [2]: 1
Post-emergence action rating, Digitaria [2]: 2
Post-emergence action rating, Echino. [2]: 2
Post-emergence action rating, Ipopur. [2]: 2
Post-emergence action rating, Panicum [2]: 1
Post-emergence action rating, Xanth. [2]: 2

COCc1nc(C(F)(F)F)ccc1C(=O)c1cnn(C)c1O [A1-C5]
Pre-emergence action rating, Abutilon [1]: 2
Pre-emergence action rating, Amaranthus [1]: 2
Pre-emergence action rating, Chenop. [1]: 1
Pre-emergence action rating, Digitaria [1]: 2
Pre-emergence action rating, Echino. [1]: 1
Pre-emergence action rating, Panicum [1]: 2
Post-emergence action rating, Abutilon [2]: 2
Post-emergence action rating, Amaranth [2]: 2
Post-emergence action rating, Chenop. [2]: 1
Post-emergence action rating, Digitaria [2]: 2
Post-emergence action rating, Echino. [2]: 2
Post-emergence action rating, Ipopur. [2]: 2
Post-emergence action rating, Panicum [2]: 4
Post-emergence action rating, Xanth. [2]: 4

O=C(C1=C(O)C2CCC(C2)C1=O)c1ccc(C(F)(F)F)nc1COCCCO (stereo not drawn) [A847-B52]
Pre-emergence action rating, Abutilon [1]: 4
Pre-emergence action rating, Amaranthus [1]: 1
Pre-emergence action rating, Chenop. [1]: 4
Pre-emergence action rating, Digitaria [1]: 3
Pre-emergence action rating, Echino. [1]: 2
Pre-emergence action rating, Panicum [1]: 1
Post-emergence action rating, Abutilon [2]: 2
Post-emergence action rating, Amaranth [2]: 3
Post-emergence action rating, Chenop. [2]: 1
Post-emergence action rating, Digitaria [2]: 2
Post-emergence action rating, Echino. [2]: 1
Post-emergence action rating, Ipopur. [2]: 4
Post-emergence action rating, Panicum [2]: 1
Post-emergence action rating, Xanth. [2]: 2

C=CCOCc1nc(C(F)(F)F)ccc1C(=O)C1=C(O)C2CCC(C2)C1=O (stereo not drawn) [A19-B52]
Pre-emergence action rating, Abutilon [1]: 1
Pre-emergence action rating, Amaranthus [1]: 2
Pre-emergence action rating, Digitaria [1]: 1
Pre-emergence action rating, Echino. [1]: 1
Pre-emergence action rating, Panicum [1]: 1
Post-emergence action rating, Abutilon [2]: 1
Post-emergence action rating, Amaranth [2]: 1
Post-emergence action rating, Chenop. [2]: 1
Post-emergence action rating, Digitaria [2]: 1
Post-emergence action rating, Echino. [2]: 2
Post-emergence action rating, Ipopur. [2]: 1
Post-emergence action rating, Panicum [2]: 1
Post-emergence action rating, Xanth. [2]: 2
